Source: patent US20070092475A1, “Methods for enhancing the morphology, tone, texture and/or appearance of skin using a Meadowestolide” (priority 2005, published 2007)

Tests used:
[1] = In vitro water binding experiments (water retention by loss on drying); type: physicochemical; settings: for water retention (FIG. 1 and FIG. 2), in words: 3 ml substance over 10 ml distilled water, after mixing
Procedure: It was postulated that, as a result of the structure of the Meadowestolide prepared in Example 1, which has a carboxylic acid function and an ester linkage in juxtaposition to one another, a considerable degree of hydrogen-bonding and consequent water binding should be evident. Consequently, in vitro experiments to test this theory employing the Meadowestolide, as well as the carefully selected comparative control compounds described below, were conducted.
The Meadowestolide prepared in Example 1 (3 ml) and the control substances (3 ml) were carefully layered over distilled water (10 ml) using a long-nosed pipette, hand mixed for 30 seconds and photographed using a Sony Digital DSC-F505V Camera equipped with a Carl Zeiss Vario-Sonner lens. The degree of water retention was then examined by measuring the “loss on drying” (water removed from lipid phase […]). The upper lipid phase was completely removed using a long-nose pipette and analyzed for water content by “loss on drying” using a drying oven at 105 degrees centigrade until there was no longer any change in weight.

human skin [2] = test: In vivo transepidermal water loss (TEWL), ServoMed Evaporimeter; settings: one application neat (100%) to forearm, about 2 minutes; twenty subjects; FIG. 3
Excerpt: (§1) TEWL and tissue hydration (of the stratum comeum) experiments were designed to evaluate the moisture retention properties of the Meadowestolide described in Example 1 in comparison with a relevant oil and a non-polymerized ester. Thus, for these studies, the natural oil to select as a control was Meadowfoam seed oil since it was the precursor oil from which the Meadowestolide was derived. […] Thus, in these experiments, the following substances were compared: (a) Meadowfoam seed oil (triglyceride oil); (b) a long-chain guerbet ester of meadowfoam fatty acid (CH3(CH2)9CH((CH)2O(CO)(CH2)22CH3)((CH2)7CH3); and (c) the Meadowestolide prepared in Example 1.
(§2) These experiments were conducted to assess and compare the moisturizing efficacy of the Meadowestolide and appropriate controls on human skin using a NOVA Technology Corporation (Portsmouth, N.H.) Dermal Phase Meter 9003 (DPM) and a ServoMed Evaporimeter (ServoMed, Sweden). The combined use of these instruments assesses the moisturizing and barrier enhancement properties of topically applied materials. […]
A ServoMed Evaporimeter was used to measure transepidermal water loss (TEWL). A hand-held probe on this meter samples the relative humidity at two points above the skin surface, thereby allowing the rate of water loss to be calculated from the humidity gradient. Measurements are recorded as g/m2/hr. […]

human skin [3] = test: In vivo tissue hydration of the stratum corneum, Dermal Phase Meter 9003; settings: one application neat (100%) to forearm, FIG. 3
Excerpt: as §1, §2
In the tissue hydration experiments, a Dermal Phase Meter 9003 was used to quantify moisture content in the stratum comeum (SC) by an electrical capacitance method. […] The Dermal Phase Meter 9003 numbers are directly related to the electrical capacitance of the skin measured as picoFarads (pF).

[4] = Analytical results on purified Meadowestolide (stability); type: physicochemical
Excerpt: The purified Meadowestolide was identified and subsequently quantified by infrared spectroscopy and HPLC coupled with an evaporative light-scattering detector.

Structure (SMILES)	water bound, relative to Jojoba oil ([1]; 3 ml substance layered over 10 ml distilled water, hand mixed 30 seconds, loss on drying of lipid phase at 105 degrees centigrade, vs Jojoba oil)	water bound, relative to Meadowfoam seed oil and meadowfoam fatty acid ([1]; 3 ml substance layered over 10 ml distilled water, hand mixed 30 seconds, loss on drying of lipid phase at 105 degrees centigrade, vs Meadowfoam seed oil and meadowfoam fatty acid)	water retention (FIG. 1 and FIG. 2), in words [1]	transepidermal water loss (TEWL), in words (human skin [2])	tissue hydration, in comparison with Meadowfoam seed oil, in words (human skin [3]; about 2 minutes, twenty subjects)	hydration capability, in comparison with the guerbet ester of meadowfoam fatty acid, in words (human skin [3]; molecular sizes reasonably equivalent)	stability [4]
CCCCCCCCCCCCCC/C=C/CCCC(=O)OC(CCCCCCCCCCCCCCC)CCCC(=O)O (centres unmarked) [Meadowestolide]	approximately nine	approximately four	capable of binding water to a significant extent	very efficient in preventing water loss	improved hydration	hydration capability exceeds that of a simple ester	extended stability
CCCCCCCCCCCCCCCCC=CCCCC(=O)O [meadowfoam fatty acid, CH3—(CH2)15—(CH)2—(CH2)3—COOH, reference compound]			retained a small quantity of water				
